Experimental findings from US11427548B2 (Arvinas Operations, Inc., priority 2015, dated 2022) are described below.

This assay concerns the target T1, Androgen Receptor (Homo sapiens, UniProt P10275).
T1 construct: endogenous in cells; host or cells: VCaP cells
T1 sequence (P10275 1-920): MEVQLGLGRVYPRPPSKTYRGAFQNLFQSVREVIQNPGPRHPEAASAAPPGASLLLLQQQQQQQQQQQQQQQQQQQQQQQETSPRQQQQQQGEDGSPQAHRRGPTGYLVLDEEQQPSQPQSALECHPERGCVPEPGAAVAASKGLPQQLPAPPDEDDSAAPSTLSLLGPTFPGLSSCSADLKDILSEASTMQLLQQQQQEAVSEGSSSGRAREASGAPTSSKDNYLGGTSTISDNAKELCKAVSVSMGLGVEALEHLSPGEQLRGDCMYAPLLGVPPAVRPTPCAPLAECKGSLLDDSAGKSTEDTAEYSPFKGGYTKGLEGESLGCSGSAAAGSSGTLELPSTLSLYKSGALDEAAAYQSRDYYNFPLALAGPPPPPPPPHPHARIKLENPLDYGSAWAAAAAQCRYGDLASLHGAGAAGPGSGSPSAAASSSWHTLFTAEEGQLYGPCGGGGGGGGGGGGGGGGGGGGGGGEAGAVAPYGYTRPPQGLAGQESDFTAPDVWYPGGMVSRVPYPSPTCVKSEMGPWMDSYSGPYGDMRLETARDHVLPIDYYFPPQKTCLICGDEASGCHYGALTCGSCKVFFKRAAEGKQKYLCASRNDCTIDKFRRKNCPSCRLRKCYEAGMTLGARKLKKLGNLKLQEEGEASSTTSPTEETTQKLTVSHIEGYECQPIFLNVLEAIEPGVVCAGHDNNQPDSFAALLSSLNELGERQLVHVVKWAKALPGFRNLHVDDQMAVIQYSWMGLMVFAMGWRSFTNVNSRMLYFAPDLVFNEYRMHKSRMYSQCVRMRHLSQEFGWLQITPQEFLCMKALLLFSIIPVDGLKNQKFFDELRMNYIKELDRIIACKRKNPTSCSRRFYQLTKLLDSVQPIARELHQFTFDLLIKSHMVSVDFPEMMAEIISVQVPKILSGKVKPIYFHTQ
Briefly: Androgen Receptor ELISA assay (PathScan AR ELISA) in VCaP cells: AR degradation, Dmax and DC50. The assay is classed as cell-based. The settings on record: for DC50: read-out: VCaP DC50; for Dmax: VCaP, read-out: VCaP Dmax (%). The method in brief: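 After 24 h exposure of VCaP cells (charcoal-stripped serum, 0.1 nM R1881 agonist, 0.1% DMSO) to seven half-log compound concentrations, residual AR in lysates was measured by PathScan ELISA (TMB absorbance, 450 nm). Cells were plated at 30,000/well and grown at least 3 days beforehand.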

The structures appear in SMILES notation. Like-named read-outs stand apart in the source and are kept apart here.

On to `CC(C)(C)[C@H](NC(=O)COCCN1CCN(c2ccc(C(=O)N[C@H]3C(C)(C)[C@H](Oc4ccc(C#N)c(Cl)c4)C3(C)C)cn2)CC1)C(=O)N1C[C@H](O)C[C@H]1C(=O)NCc1cc(F)ccc1F` [Example 775, N-((1r,3r)-3-(3-chloro-4-cyanophenoxy)-2,2,4,4-tetramethylcyclobutyl)-6-(4-(2-(2-(((S)-1-((2S,4R)-2-((2,5-difluorobenzyl)carbamoyl)-4-hydroxypyrrolidin-1-yl)-3,3-dimethyl-1-oxobutan-2-yl)amino)-2-oxoethoxy)ethyl)piperazin-1-yl)nicotinamide], for which, where the note is “VCaP cells, Table 36”, the DC50 is above 501 nM and the maximal degradation (Dmax) is below 25%.

For the compound `CC(C)(C)c1ccc(CNC(=O)[C@@H]2C[C@@H](O)CN2C(=O)[C@@H](NC(=O)COCCN2CCN(c3ccc(C(=O)N[C@H]4C(C)(C)[C@H](Oc5ccc(C#N)c(Cl)c5)C4(C)C)cn3)CC2)C(C)(C)C)cc1` [Example 776, 6-(4-(2-(2-(((S)-1-((2S,4R)-2-((4-(tert-butyl)benzyl)carbamoyl)-4-hydroxypyrrolidin-1-yl)-3,3-dimethyl-1-oxobutan-2-yl)amino)-2-oxoethoxy)ethyl)piperazin-1-yl)-N-((1r,3r)-3-(3-chloro-4-cyanophenoxy)-2,2,4,4-tetramethylcyclobutyl) nicotinamide], for the setting “VCaP cells, Table 36”, the DC50 is above 501 nM and the Dmax was below 25%.

As for `Cc1ncsc1-c1ccc([C@H](C)NC(=O)[C@@H]2C[C@@H](O)CN2C(=O)[C@@H](C(C)C)N2Cc3ccc(N4CCN(CCCc5ccc(C(=O)N[C@H]6C(C)(C)[C@H](Oc7ccc(C#N)c(Cl)c7)C6(C)C)cc5)CC4)cc3C2=O)cc1` [Example 777, (2S,4R)-1-((R)-2-(6-(4-(3-(4-(((1r,3r)-3-(3-chloro-4-cyanophenoxy)-2,2,4,4-tetramethylcyclobutyl)carbamoyl)phenyl)propyl)piperazin-1-yl)-1-oxoisoindolin-2-yl)-3-methylbutanoyl)-4-hydroxy-N-((S)-1-(4-(4-methylthiazol-5-yl)phenyl)ethyl)pyrrolidine-2-carboxamide], the Dmax is below 25%. For the same compound, the DC50 (VCaP cells, Table 36) was above 501 nM.

On to `Cc1ncsc1-c1ccc([C@H](C)NC(=O)[C@@H]2C[C@@H](O)CN2C(=O)[C@H](C(C)C)N2Cc3ccc(N4CCN(CCCc5ccc(C(=O)N[C@H]6C(C)(C)[C@H](Oc7ccc(C#N)c(Cl)c7)C6(C)C)cc5)CC4)cc3C2=O)cc1` [Example 778, (2S,4R)-1-((S)-2-(6-(4-(3-(4-(((1r,3r)-3-(3-chloro-4-cyanophenoxy)-2,2,4,4-tetramethylcyclobutyl)carbamoyl)phenyl)propyl)piperazin-1-yl)-1-oxoisoindolin-2-yl)-3-methylbutanoyl)-4-hydroxy-N-((S)-1-(4-(4-methylthiazol-5-yl)phenyl)ethyl)pyrrolidine-2-carboxamide], for which the greatest degradation seen (Dmax) is below 25%. Also, for the setting “VCaP cells, Table 36”, the DC50 was above 501 nM.

With `Cc1ncsc1-c1ccc([C@H](C)NC(=O)[C@@H]2C[C@@H](O)CN2C(=O)[C@@H](NC(=O)CCCCN2CCN(c3ccc(C(=O)N[C@H]4C(C)(C)[C@H](Oc5ccc(C#N)c(Cl)c5)C4(C)C)cn3)CC2)C(C)(C)C)cc1` [Example 779, N-((1r,3r)-3-(3-chloro-4-cyanophenoxy)-2,2,4,4-tetramethylcyclobutyl)-6-(4-(5-(((S)-1-((2S,4R)-4-hydroxy-2-(((S)-1-(4-(4-methylthiazol-5-yl)phenyl)ethyl)carbamoyl)pyrrolidin-1-yl)-3,3-dimethyl-1-oxobutan-2-yl)amino)-5-oxopentyl)piperazin-1-yl)nicotinamide], where the note is “VCaP cells, Table 36”, the DC50 was above 501 nM and the Dmax is below 25%.

On to `Cc1ncsc1-c1ccc([C@H](CO)NC(=O)[C@@H]2C[C@@H](O)CN2C(=O)[C@@H](NC(=O)CCCCN2CCN(c3ccc(C(=O)N[C@H]4C(C)(C)[C@H](Oc5ccc(C#N)c(Cl)c5)C4(C)C)cn3)CC2)C(C)(C)C)cc1` [Example 780, N-((1r,3r)-3-(3-chloro-4-cyanophenoxy)-2,2,4,4-tetramethylcyclobutyl)-6-(4-(5-(((S)-1-((2S,4R)-4-hydroxy-2-(((R)-2-hydroxy-1-(4-(4-methylthiazol-5-yl)phenyl)ethyl)carbamoyl)pyrrolidin-1-yl)-3,3-dimethyl-1-oxobutan-2-yl)amino)-5-oxopentyl)piperazin-1-yl)nicotinamide], for which, under “VCaP cells, Table 36”, the DC50 is below 50 nM and the Dmax lay within 26 to 50%.

As to `Cc1ncsc1-c1ccc(C(CO)NC(=O)[C@@H]2C[C@@H](O)CN2C(=O)[C@@H](NC(=O)CCCN2CCN(c3ccc(C(=O)N[C@H]4C(C)(C)[C@H](Oc5ccc(C#N)c(Cl)c5)C4(C)C)cn3)CC2)C(C)(C)C)cc1` (stereo partly drawn) [Example 781, N-((1r,3r)-3-(3-chloro-4-cyanophenoxy)-2,2,4,4-tetramethylcyclobutyl)-6-(4-(4-(((S)-1-((2S,4R)-4-hydroxy-2-(((R)-2-hydroxy-1-(4-(4-methylthiazol-5-yl)phenyl)ethyl)carbamoyl)pyrrolidin-1-yl)-3,3-dimethyl-1-oxobutan-2-yl)amino)-4-oxobutyl)piperazin-1-yl)nicotinamide], for the setting “VCaP cells, Table 36”, the DC50 is above 501 nM and the Dmax is 26 to 50%.

For `Cc1ncsc1-c1ccc([C@H](C)NC(=O)C2C[C@@H](O)CN2C(=O)[C@@H](NC(=O)COCCN2CCCN(c3ccc(C(=O)N[C@H]4C(C)(C)[C@H](Oc5ccc(C#N)c(Cl)c5)C4(C)C)cn3)CC2)C(C)(C)C)cc1` (stereo partly drawn) [Example 782, N-((1r,3r)-3-(3-chloro-4-cyanophenoxy)-2,2,4,4-tetramethylcyclobutyl)-6-(4-(2-(2-(((S)-1-((2S,4R)-4-hydroxy-2-(((S)-1-(4-(4-methylthiazol-5-yl)phenyl)ethyl)carbamoyl)pyrrolidin-1-yl)-3,3-dimethyl-1-oxobutan-2-yl)amino)-2-oxoethoxy)ethyl)-1,4-diazepan-1-yl)nicotinamide], for the setting “VCaP cells, Table 36”, the DC50 was below 50 nM and the Dmax was above 71%.

In the case of `Cc1ncsc1-c1ccc([C@H](C)NC(=O)[C@@H]2C[C@@H](O)CN2C(=O)[C@@H](NC(=O)CN2CCN(CCCc3ccc(C(=O)N[C@H]4C(C)(C)[C@H](Oc5ccc(C#N)c(Cl)c5)C4(C)C)cc3)CC2)C(C)(C)C)cc1` [Example 783, (2S,4R)-1-((S)-2-(2-(4-(3-(4-(((1r,3r)-3-(3-chloro-4-cyanophenoxy)-2,2,4,4-tetramethylcyclobutyl)carbamoyl)phenyl)propyl)piperazin-1-yl)acetamido)-3,3-dimethylbutanoyl)-4-hydroxy-N-((S)-1-(4-(4-methylthiazol-5-yl)phenyl)ethyl)pyrrolidine-2-carboxamide], for the setting “VCaP cells, Table 36”, the DC50 was below 50 nM and the Dmax was above 71%.

In the case of `COc1cc(C#N)ccc1[C@H](C)NC(=O)[C@@H]1C[C@@H](O)CN1C(=O)[C@@H](NC(=O)CCCCN1CCN(c2ccc(C(=O)N[C@H]3C(C)(C)[C@H](Oc4ccc(C#N)c(Cl)c4)C3(C)C)cn2)CC1)C(C)(C)C` [Example 784, N-((1r,3r)-3-(3-chloro-4-cyanophenoxy)-2,2,4,4-tetramethylcyclobutyl)-6-(4-(5-(((S)-1-((2S,4R)-2-(((S)-1-(4-cyano-2-methoxyphenyl)ethyl)carbamoyl)-4-hydroxypyrrolidin-1-yl)-3,3-dimethyl-1-oxobutan-2-yl)amino)-5-oxopentyl)piperazin-1-yl)nicotinamide], where the note is “VCaP cells, Table 36”, the DC50 was above 501 nM and the Dmax is below 25%.

Take `COc1cc(C#N)ccc1[C@H](C)NC(=O)[C@@H]1C[C@@H](O)CN1C(=O)[C@@H](NC(=O)COCCN1CCN(c2ccc(C(=O)N[C@H]3C(C)(C)[C@H](Oc4ccc(C#N)c(Cl)c4)C3(C)C)cn2)CC1)C(C)(C)C` [Example 785, N-((1r,3r)-3-(3-chloro-4-cyanophenoxy)-2,2,4,4-tetramethylcyclobutyl)-6-(4-(2-(2-(((S)-1-((2S,4R)-2-(((S)-1-(4-cyano-2-methoxyphenyl)ethyl)carbamoyl)-4-hydroxypyrrolidin-1-yl)-3,3-dimethyl-1-oxobutan-2-yl)amino)-2-oxoethoxy)ethyl)piperazin-1-yl)nicotinamide]: where the note is “VCaP cells, Table 36”, the DC50 was below 50 nM and the Dmax was in the range of 51 to 70%.
